Values after ≈ are worked out from the molar mass of the structure shown. Counter-ions that a name gives are not always drawn. Like-named read-outs stand apart in the source and are kept apart here.
Key:
[1] = test system: P. falciparum chloroquine sensitive strain (MRC-2); experiment: microbe, parasite or virus in culture; details: for % Schizont maturation inhibition ± SD (MRC-2): Conc. = 6.25 μg/mL; for % Schizont maturation inhibition ± SD (MRC-2) / P. falciparum Chloroquine^s Strain (MRC-2) IC50 / P. falciparum Chloroquine^s Strain (MRC-2) IC90: 24 h; for Selective index (SI) P.falciparum chloroquine^s (MRC-2): SI = CC50 (HeLa)/IC50 (MRC-2); for P. falciparum Chloroquine^s Strain (MRC-2) IC50 / P. falciparum Chloroquine^s Strain (MRC-2) IC90: schizont maturation, ring stage
Description: (§1) These strains were perpetuated in vitro in continuous culture according to the method of Trager and Jensen with slight modifications. Briefly, both sensitive and resistant strains of P. falciparum were maintained in A+ erythrocytes in RPMI-1640 medium (having glutamine, but without any sodium bicarbonate) comprising 1.00 g of dextrose, 5.94 g of HEPES buffer, 40.00 mg of gentamycin. Additionally supplemented with 5% sodium bicarbonate and 10% (v/v) inactivated human AB+ serum then incubated in gas mixture of 5% CO2, 5% O2 and 90% N2 at 37 °C. Parasitized erythrocytes at initial 5% haematocrit were suspended in above mentioned culture medium and parasitaemia was regularly checked to maintain level between 2 and 4% with further sub-culturing for parasitaemia beyond 5%. Growth and multiplication of parasite was monitored by microscopy using Giemsa-stained slides.
(§2) To obtain ring stages of the parasite, the cultures were synchronized using D-sorbitol. The cultures, with majority of ring stages, were treated with equal volume of aqueous 5% D-sorbitol for 5 min and then after centrifugation pellet were suspended in complete medium and fresh erythrocytes synchronized culture with 1% parasitaemia and 5% haematocrit were used for compound concentration response assay.
(§3) The concentration of each test compound needed to hinder multiplication of parasites by 50% (IC50) against P. falciparum strains were obtained through concentration response assay performed in 96-well sterile tissue culture plates. Synchronized parasite cultures were applied to different doses of each compound. Dilutions were performed in gentamycin-free culture medium, and incubated at 37 °C having gaseous mixture (5% CO2, 5% O2 and 90% N2) supply for 24 h. The results were expressed as IC50 values computed from HN-NonLin Regression analysis, as well as mean percentage inhibition ± standard error examined by thick smear Giemsa stained slides. %ParasiteInhibition29,30=100-TotalnumberofSchizontsintestwells/TotalnumberofSchizontsincontrolwell∗100
(§4) Parasite at ring stage was used for compound concentration response assay with parasitaemia of 1% at 5% haematocrit. […] The IC50 and IC90 values of all compounds were determined and the resistance index between the two sensitive and resistant strains was calculated (Table 2). […] The percentage inhibition in schizont maturation was also calculated after incubation of ring stage P. falciparum till 24 h at the same range of drug concentrations (Table 3).

[2] = test system: P. falciparum chloroquine resistant strain (RKL-9); experiment: WHO Mark III schizont maturation inhibition assay, chloroquine resistant strain; format: cell-based, Plasmodium falciparum; details: for Selective index (SI) P.falciparum chloroquine^R (RKL-9): SI = CC50 (HeLa)/IC50 (RKL-9); for Resistance Index (RI) IC50 (RKL-9)/IC50 (MRC-2): ratio of IC50 resistant / sensitive strain; for IC50: read-out: P. falciparum Chloroquine^R Strain (RKL-9) IC50; for IC90: read-out: P. falciparum Chloroquine^R Strain (RKL-9) IC90
Description: as §1, §2, §3, §4

HeLa cell line [3] = test system: HeLa cell line
Description: (§5) Cytotoxicity of the compounds on mammalian cells were accomplished employing HeLa cell line (NCCS, Pune) cultured in DMEM supplemented with 10% FBS by the MTT (3-(4,5-dimethylthiazol-2-yl)-2,5-diphenyltetrazolium bromide) microenzymatic method with certain modifications [32]. Briefly, cells (10^4 cells/200 μL/well) were seeded into 96-well flat-bottom sterile tissue culture plates in complete medium. After 24 h of seeding, the test compounds at different dilutions were added and kept for another 24 h in a humidified chamber with 5% CO2 at 37 °C. Twenty microlitres of MTT (5.00 mg/mL in 1XPBS) stock solution were pipetted into each well, mixed and incubated for at least 3–4 h. After incubation, the plates were centrifuged at 1500 rpm for 5 min. The supernatant was disposed cautiously and 100 μL of DMSO were added to each well to lyse the cell and dissolve the insoluble purple formazan product into a coloured solution. Absorbance was taken at 570 nm to determine formazan formation as a measurement of cell viability. Experiments were performed in triplicate.

[4] = test system: haemozoin (β-haematin) production in P. falciparum cultures; experiment: Haemozoin inhibition assay in P. falciparum cultures; format: cell-based, Plasmodium falciparum; details: drug near IC50 concentration, 48 h; untreated control 547.61 ± 9.52
Description: Briefly, the test cultures were centrifuged for 5–10 min at 1300 rpm to dispose of the culture medium. Infected erythrocyte pellet (mingled of β-haematin and erythrocyte membrane) were exposed to 0.01% saponin lysis for 10 min at 25 °C to lyse erythrocyte to release parasites. […] The haemozoin content was quantified by taking the absorbance at 400 nm and using a standard curve prepared from β-haematin. The amount of haemozoin formed in relation to control was calculated. All assays were performed in triplicate.

normal erythrocytes = experiment: Haemolysis assay on normal erythrocytes; details: Conc. = 12.5 μg/mL, 3 h, 37 °C
Description: (§6) Briefly, fresh erythrocytes were centrifuged for 5 min at 1600 rpm for at least thrice in PBS and then the remaining pellet was re-suspended in PBS at 2% hematocrit. One hundred microlitres of this suspended pellet was added to 96-well sterile culture plate having test compounds at different desired concentrations. PBS alone (for baseline values) and 0.4% Triton X-100 in PBS (for 100% haemolysis) were employed as controls. After keeping at 37 °C for 3 h, the test samples were centrifuged and the supernatant was used for determination of the haemolytic activity quantified in terms of haemoglobin release as monitored spectrophotometrically by taking absorbance at 415 nm [33]. The experiment was done in triplicate and the mean ± SD was calculated [33, 34]. %Haemolysis=[Absorbanceofsample415nm-Absorbanceofblanksample415nm/Absorbanceofpositivecontrol415nm]∗100

HeLa cell line [5] = experiment: MTT cytotoxicity / cell viability assay; details: MTT, 24 h, not in table head
Description: as §5

[6] = MTT cytotoxicity / cell viability assay; details: human, HeLa cells
Description: as §5

Plasmodium = details: comparison value, reference not given; cited from earlier work
[7] = schizont maturation, 24 h, ring stage
[8] = Plasmodium falciparum, schizont maturation, 24 h, ring stage
[9] = Plasmodium falciparum, artemisinin, unit ng/mL

Description for in vitro: as §6

| SMILES | % Schizont maturation inhibition ± SD (MRC-2) [1] [%] | Selective index (SI) P.falciparum chloroquine^s (MRC-2) [1] | P. falciparum Chloroquine^s Strain (MRC-2) IC50 [1] [µg/mL] | P. falciparum Chloroquine^s Strain (MRC-2) IC90 [1] [µg/mL] | % Schizont maturation inhibition ± SD (RKL-9) ([2]; Conc. = 6.25 μg/mL, 24 h) [%] | Selective index (SI) P.falciparum chloroquine^R (RKL-9) [2] | Resistance Index (RI) IC50 (RKL-9)/IC50 (MRC-2) [2] | P. falciparum Chloroquine^R Strain (RKL-9) IC50 [2, 7] [µg/mL] | P. falciparum Chloroquine^R Strain (RKL-9) IC90 [2, 7] [µg/mL] | HeLa Cell CC50 (HeLa cell line [3]) [µg/mL] | also measured |
| --- | --- | --- | --- | --- | --- | --- | --- | --- | --- | --- | --- |
| COc1cc(OC)c(C(=O)/C=C/c2ccc(OC)c(OC)c2)c(OC)c1 [Chalcone 1] | 82.43 ± 20.51 | 12.82 | 0.34 | 5.54 | 49.66 ± 25.46 | 18.96 | 0.68 | 0.23 | 1.42 | 4.36 | – |
| O=C(/C=C/c1cc2ccccc2[nH]1)c1ccc(I)cc1 [Chalcone 10] | 64.44 ± 9.90 | 9.40 | 0.20 | 0.89 | 49.62 ± 19.79 | 9.90 | 0.95 | 0.19 | 0.81 | 1.88 | – |
| COc1ccc(OC)c(C(=O)C=Cc2ccc3c(c2)OCO3)c1 [Chalcone 3] | 59.26 ± 4.95 | 45.82 | 0.17 | 0.75 | 63.71 ± 2.83 | 26.86 | 1.71 | 0.29 | 1.15 | 7.79 | – |
| COc1ccc(C=CC(=O)c2cc(OC)ccc2OC)cc1 [Chalcone 2] | 71.76 ± 10.61 | 8.15 | 0.13 | 0.51 | 58.02 ± 21.21 | 7.57 | 1.08 | 0.14 | 0.36 | 1.06 | Amount of haemozoin production [4]: 464.28 ± 11.9 ng/mL |
| COc1cc(C(=O)/C=C/c2ccc3c(c2)OCO3)cc(OC)c1OC [Chalcone 8] | 75.17 ± 12.02 | 7.59 | 0.29 | 1.01 | 77.78 ± 1.41 | 8.46 | 0.90 | 0.26 | 5.31 | 2.20 | – |
| O=C(/C=C/c1cc2ccccc2[nH]1)c1ccc(Cl)cc1 [Chalcone 9] | 50.32 ± 33.23 | 6.60 | 0.25 | 0.96 | 48.87 ± 25.46 | 7.85 | 0.84 | 0.21 | 0.95 | – | % Hemolysis ± SD (normal erythrocytes): 1.30 ± 0.009%; HeLa Cell CC50 (HeLa cell line [5]): 1.65 µg/mL |
| COc1ccc(/C=C/C(=O)c2cc(OC)c(OC)c(OC)c2)cc1 [Chalcone 6] | 51.05 ± 42.42 | 4.74 | 0.35 | 5.23 | 43.85 ± 33.23 | 8.74 | 0.54 | 0.19 | 0.98 | 1.66 | Amount of haemozoin production [4]: 457.14 ± 38.09 ng/mL |
| C=C[C@H]1C[N@@]2CC[C@H]1C[C@H]2[C@H](O)c1ccnc2ccc(OC)cc12 [QNN, quinine hydrochloride, reference compound] | – | – | – | – | – | 121.24 | – | – | – | – | hemolysis at 3 h, 12.5 μg/mL (in vitro): 2.16 ± 0.035%; IC50 [2, 8]: 250 ng/mL; IC90 [2, 8]: 1590 ng/mL; inhibition at 6.25 µg/mL ([2]; Plasmodium falciparum, Conc. = 6.25 μg/mL, 24 h, read-out: % Schizont maturation inhibition ± SD (RKL-9)): 71.9 ± 16.3%; CC50 at 24 h [6]: 30.3 µg/mL; viability at 24 h, 12.5 µg/mL [6]: 62.62 ± 0.06% |
| C[C@@H]1CC[C@H]2[C@@H](C)C(=O)O[C@@H]3O[C@@]4(C)CC[C@@H]1[C@]32OO4 [ART, artemisinin, reference compound] | – | – | – | – | – | 327.4 | – | – | – | – | hemolysis at 3 h, 12.5 ng/mL (in vitro): 1.94 ± 0.026%; IC50 [2, 9]: 0.15 ng/mL (≈ 0.531 nM); IC90 [2, 9]: 0.15 ng/mL (≈ 0.531 nM); inhibition at 0.00625 µg/mL ([2]; Plasmodium falciparum, artemisinin, Conc. = 6.25 ng/mL, 24 h, read-out: % Schizont maturation inhibition ± SD (RKL-9)): 87.9 ± 2.12%; CC50 at 24 h [6]: 0.0491 µg/mL (≈ 174 nM); viability at 24 h, 12.5 ng/mL [6]: 58.92 ± 0.06% |
| COc1ccc(/C=C/C(=O)c2cc(OC)c(OC)c(OC)c2)cc1OC [Chalcone 7] | 94.24 ± 2.21 | 139.18 | 0.11 | 0.46 | 85.82 ± 6.36 | 85.05 | 1.64 | 0.18 | 0.67 | – | Amount of haemozoin production [4]: 385.71 ± 4.76 ng/mL |
| COc1cc(C(=O)C=Cc2ccc(N(C)C)cc2)cc(OC)c1OC [Chalcone 5] | 58.65 ± 7.78 | 52.81 | 0.16 | 1.08 | 40 ± 20.51 | 36.74 | 1.43 | 0.23 | 0.92 | 8.45 | – |
| COc1cc(C(=O)C=Cc2ccc(F)cc2)cc(OC)c1OC [Chalcone 4] | 47.48 ± 17.68 | 5.60 | 0.15 | 0.40 | 57.69 ± 7.78 | 1.65 | 3.40 | 0.51 | 2.26 | 0.84 | – |
| C=CC(C)(C)c1cc(/C=C/C(=O)c2ccc(O)cc2)c(OC)cc1O [licochalcone] | – | – | – | – | – | – | – | – | – | – | IC50 of licochalcone (Plasmodium): 1.43 µg/mL |

Reference: PMC6916019, “In vitro anti-malarial efficacy of chalcones: cytotoxicity profile, mechanism of action and their effect on erythrocytes” (Malaria Journal, 2019)
